Assay [1] deals with EGFR (Human), P00533 [Inhibition of EGFR Dependent Proliferation of HCC827(.Delta.746-750) cells]. As to the kind of experiment: Cell-Based Assay.
Assay [2] addresses EGFR (Human), P00533 [T790M/L858R]. Nature of the assay: Cell-Based Assay. The note with it: h1975.
The target of assay [3] is EGFR (human), P00533 [WT]. The note with it: a431.
The target of assay [4] is EGFR (Human), P00533 [Assessment of Phosphorylation of EGFR(.Delta.746-750) in HCC827 Cells]. As to the kind of experiment: Cell-Based Assay.
Chain of EGFR (Human), P00533 [Assessment of Phosphorylation of EGFR(.Delta.746-750) in HCC827 Cells] (P00533 whole entry, looked up, stated change not applied): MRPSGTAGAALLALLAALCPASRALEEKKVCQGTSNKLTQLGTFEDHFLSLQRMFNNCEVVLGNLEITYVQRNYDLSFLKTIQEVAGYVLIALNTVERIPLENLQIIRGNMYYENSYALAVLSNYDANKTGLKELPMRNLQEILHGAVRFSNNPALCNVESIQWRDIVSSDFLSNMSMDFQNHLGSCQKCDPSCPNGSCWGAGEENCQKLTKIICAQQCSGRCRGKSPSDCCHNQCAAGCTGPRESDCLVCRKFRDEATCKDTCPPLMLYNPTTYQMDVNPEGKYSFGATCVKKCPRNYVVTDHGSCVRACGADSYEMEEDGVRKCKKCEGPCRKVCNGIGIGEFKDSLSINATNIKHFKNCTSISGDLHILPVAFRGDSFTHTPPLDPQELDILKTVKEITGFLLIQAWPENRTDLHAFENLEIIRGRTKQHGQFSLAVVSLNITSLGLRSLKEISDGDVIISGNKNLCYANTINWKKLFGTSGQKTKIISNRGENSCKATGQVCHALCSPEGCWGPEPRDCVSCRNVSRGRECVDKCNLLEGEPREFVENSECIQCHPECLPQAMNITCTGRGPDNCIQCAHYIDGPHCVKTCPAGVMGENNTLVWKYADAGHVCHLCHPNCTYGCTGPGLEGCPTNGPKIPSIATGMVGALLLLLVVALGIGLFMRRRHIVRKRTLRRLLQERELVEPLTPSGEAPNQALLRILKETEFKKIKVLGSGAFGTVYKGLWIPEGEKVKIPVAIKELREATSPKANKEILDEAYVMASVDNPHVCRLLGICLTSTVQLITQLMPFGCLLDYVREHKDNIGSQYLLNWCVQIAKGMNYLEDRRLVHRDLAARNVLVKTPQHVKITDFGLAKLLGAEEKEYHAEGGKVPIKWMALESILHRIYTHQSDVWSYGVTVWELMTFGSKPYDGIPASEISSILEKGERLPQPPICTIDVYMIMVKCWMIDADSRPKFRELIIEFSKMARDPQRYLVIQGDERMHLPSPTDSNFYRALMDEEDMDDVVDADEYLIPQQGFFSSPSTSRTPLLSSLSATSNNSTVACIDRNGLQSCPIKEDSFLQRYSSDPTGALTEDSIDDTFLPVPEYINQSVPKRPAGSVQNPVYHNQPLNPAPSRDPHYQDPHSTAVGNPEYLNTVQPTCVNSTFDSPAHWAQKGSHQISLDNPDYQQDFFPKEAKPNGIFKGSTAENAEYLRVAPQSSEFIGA
The target in assay [5] is EGFR (human), P00533 [WT]. Nature of the assay: Cell-Based Assay. The note with it: a431.
The target of assay [6] is EGFR (Human), P00533 [T790M/L858R]. Nature of the assay: Cell-Based Assay. The note with it: h1975. This is another data set of the same source.
Chain of EGFR (Human), P00533 [T790M/L858R] (P00533 whole entry T790M/L858R, looked up): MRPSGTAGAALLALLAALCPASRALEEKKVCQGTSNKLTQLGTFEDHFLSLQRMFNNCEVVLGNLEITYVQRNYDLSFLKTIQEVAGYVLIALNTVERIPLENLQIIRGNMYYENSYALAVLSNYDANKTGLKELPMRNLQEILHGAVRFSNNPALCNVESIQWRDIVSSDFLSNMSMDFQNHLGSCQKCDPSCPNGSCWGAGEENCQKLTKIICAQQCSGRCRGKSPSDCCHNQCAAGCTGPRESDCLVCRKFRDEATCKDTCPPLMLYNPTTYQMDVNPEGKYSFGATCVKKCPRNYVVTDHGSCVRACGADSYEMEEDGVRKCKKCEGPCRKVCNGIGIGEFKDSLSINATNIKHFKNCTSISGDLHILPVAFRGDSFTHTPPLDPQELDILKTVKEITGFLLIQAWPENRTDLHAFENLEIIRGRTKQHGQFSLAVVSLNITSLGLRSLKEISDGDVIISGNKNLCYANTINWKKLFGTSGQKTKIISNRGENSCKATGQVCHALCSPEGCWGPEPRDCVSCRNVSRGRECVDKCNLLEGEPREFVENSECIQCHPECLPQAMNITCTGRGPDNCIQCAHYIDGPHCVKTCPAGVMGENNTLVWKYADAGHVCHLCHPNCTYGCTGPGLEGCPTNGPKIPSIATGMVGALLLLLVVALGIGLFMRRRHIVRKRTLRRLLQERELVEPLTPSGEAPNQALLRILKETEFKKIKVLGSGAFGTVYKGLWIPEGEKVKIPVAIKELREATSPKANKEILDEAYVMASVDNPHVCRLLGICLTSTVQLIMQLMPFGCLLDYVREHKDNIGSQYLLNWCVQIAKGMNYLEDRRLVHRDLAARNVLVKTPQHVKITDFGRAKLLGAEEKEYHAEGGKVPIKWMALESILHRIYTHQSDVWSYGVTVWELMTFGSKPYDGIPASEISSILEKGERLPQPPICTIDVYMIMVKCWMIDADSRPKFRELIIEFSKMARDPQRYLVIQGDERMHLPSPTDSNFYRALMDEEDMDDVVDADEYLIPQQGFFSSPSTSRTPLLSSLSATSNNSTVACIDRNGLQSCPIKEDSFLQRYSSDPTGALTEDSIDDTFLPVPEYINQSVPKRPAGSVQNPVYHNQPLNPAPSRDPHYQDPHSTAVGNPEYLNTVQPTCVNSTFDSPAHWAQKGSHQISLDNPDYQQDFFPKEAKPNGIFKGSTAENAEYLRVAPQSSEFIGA

Molecules are shown by their SMILES. Values joined by “and” are separate entries in the source; they are usually repeats but may differ in a detail not shown here. Identical values can stand only once.

Chain of EGFR (Human), P00533 [Inhibition of EGFR Dependent Proliferation of HCC827(.Delta.746-750) cells] (P00533 whole entry, looked up, stated change not applied): as the sequence (P00533 whole entry, looked up, stated change not applied) above
Chain of EGFR (human), P00533 [WT] (P00533 whole entry, looked up): as the sequence (P00533 whole entry, looked up, stated change not applied) above

On to `C=CC(=O)Nc1cccc(-n2c(=O)cc(C)c3cnc(Nc4cnn(CCN(C)C)c4)nc32)c1`, for which the IC50 (usually the concentration that inhibits the measured activity by half) in assay [1] came to 305 nM; in assay [2], 162 nM.
As for `C=CC(=O)Nc1cccc(-n2c(=O)cc(C)c3cnc(Nc4cn(C5CCN(C)CC5)nc4C)nc32)c1.C=CC(=O)Nc1cccc(-n2c(=O)cc(C)c3cnc(Nc4cnn(C5CCN(C)CC5)c4C)nc32)c1`, the IC50 turned out to be 1050 nM in assay [1], 310 nM in assay [2] and 1820 nM in assay [3].
Take `C=CC(=O)Nc1cccc(-n2c(=O)cc(C)c3cnc(Nc4cccc(F)c4)nc32)c1`: the IC50 in assay [2] came out at 714 nM.
The molecule `C=CC(=O)Nc1cccc(-n2c(=O)ccc3cnc(Nc4ccc(NC5CN(CCF)C5)cc4OC)nc32)c1` had an IC50 in assay [4] of 5 nM.
Regarding `C=CC(=O)Nc1cccc(-n2c(=O)cc(C)c3cnc(Nc4ccc(OCCCN(C)C)cc4)nc32)c1`, the IC50 in assay [1] turned out to be 159 nM; in assay [2], 27 nM; in assay [3] it was 1550 nM.
As for `C=CC(=O)Nc1cccc(-n2c(=O)cc(C)c3cnc(Nc4ccc(OCCOC)cc4)nc32)c1`, the IC50 in assay [1] turned out to be 249 nM; in assay [2] it was 42 nM; in assay [3] it was 2410 nM.
For `C=CC(=O)Nc1cccc(-n2c(=O)cc(C)c3cnc(Nc4ccc(N(C)CCO)cc4OC)nc32)c1`, in that order: 483 nM, 35 nM and 1690 nM.
Take `C=CC(=O)Nc1cccc(-n2c(=O)cc(C)c3cnc(Nc4ccc(OCCN(C)C)cc4)nc32)c1`: the IC50 is 17 nM and 10 nM in assay [1]; 9 nM in assay [2]; 1030 nM in assay [3].
`C=CC(=O)Nc1cccc(-n2c(=O)cc(C)c3cnc(Nc4ccc(N5CCN(C)CC5)cc4OC)nc32)c1` registered a half-inhibitory concentration (IC50) in assay [4] of 8 nM.
As for `C=CC(=O)Nc1cccc(-n2c(=O)cc(C)c3cnc(Nc4ccc(N5CCN(C)CC5)c(C)c4)nc32)c1`, the 50% inhibitory concentration (IC50) in assay [1] worked out at 36 nM; in assay [2] it was 5.8 nM; in assay [3], 653 nM.
Take `C=CC(=O)Nc1cccc(-n2c(=O)cc(C)c3cnc(Nc4ccc(N(C)CCN5CCCC5=O)cc4OC)nc32)c1`: the results for the IC50 in assay [1], in assay [2] and in assay [3] were 401 nM, 108 nM and 4240 nM, respectively.
As to `C=CC(=O)Nc1cccc(-n2c(=O)cc(C)c3cnc(Nc4ccc(N5CCC(C(C)(C)O)CC5)cc4)nc32)c1`, the concentration for half-maximal inhibition (IC50) in assay [1] was 401 nM; in assay [2], 176 nM; in assay [3] it was 6670 nM.
Take `C=CC(=O)Nc1cccc(-n2c(=O)cc(C)c3cnc(Nc4cn(C)nc4C(F)(F)F)nc32)c1`: the half-maximal inhibitory concentration (IC50) in assay [2] was 53 nM.
In the case of `C=CC(=O)Nc1cccc(-n2c(=O)ccc3cnc(Nc4cn(C)nc4C)nc32)c1`, the figures for the IC50 in assay [1] and in assay [2] were 2 nM and 7 nM, respectively.
`C=CC(=O)Nc1cccc(-n2c(=O)cc(C)c3cnc(Nc4ccc(C5CCNCC5)cc4)nc32)c1`: in assay [2], the IC50 was 180 nM.
Consider `C=CC(=O)Nc1cccc(-n2c(=O)c(OC)cc3cnc(Nc4ccc(N5CCN(C)CC5)cc4OC)nc32)c1`, for which the results for the concentration for half-maximal inhibition (IC50) in assay [1], in assay [2] and in assay [3] were 61 nM, 272 nM and 201 nM, respectively.
On to `C=CC(=O)Nc1cccc(-n2c(=O)cc(C)c3cnc(Nc4cnn(C)c4)nc32)c1`, for which the 50% inhibitory concentration (IC50) was determined as 77 nM in assay [1], 62 nM in assay [2] and 16600 nM in assay [3].
In the case of `C/C=C/C(=O)Nc1cccc(-n2c(=O)cc(C)c3cnc(Nc4ccc(OCCN(C)C)cc4OC)nc32)c1`, the IC50 in assay [1] turned out to be 1480 nM; in assay [2], 870 nM; in assay [3], 24800 nM.
For `C=CC(=O)Nc1cccc(-n2c(=O)cc(C)c3cnc(Nc4ccc(N(C)CCN(C)C)cc4C)nc32)c1`, in that order: 124 nM, 9 nM and 1150 nM.
The matching figures for `C=CC(=O)Nc1cccc(-n2c(=O)cc(C)c3cnc(Nc4ccc(N(C)CCN(C)C)cc4Cl)nc32)c1`: 21 nM, 13 nM and 3100 nM.
In turn, `C=CC(=O)Nc1cccc(-n2c(=O)cc(C)c3cnc(Nc4cnn(C(C)C)c4)nc32)c1` registered an IC50 in assay [2] of 101 nM.
On to `C/C=C/C(=O)Nc1cccc(-n2c(=O)cc(C)c3cnc(Nc4ccc(N(C)CCN(C)C)cc4OC)nc32)c1`, for which the IC50 in assay [1] was 1370 nM; in assay [2], 336 nM; in assay [3] it was 18000 nM.
For `C=CC(=O)Nc1cccc(-n2c(=O)ccc3cnc(Nc4ccc(N5CCN(C)CC5)cc4OC)nc32)c1`, the half-inhibitory concentration (IC50) in assay [4] was 3.4 nM.
As to `C=CC(=O)Nc1cccc(-n2c(=O)cc(C)c3cnc(Nc4ccc(N5CCN(C(C)=O)CC5)cc4Cl)nc32)c1`, the IC50 in assay [1] is 236 nM; in assay [2] it was 9 nM; in assay [3], 4270 nM.
The matching figures for `C=CC(=O)Nc1cccc(-n2c(=O)cc(C)c3cnc(Nc4cn(C)nc4Cl)nc32)c1`: 30 nM, 16 nM and 2870 nM.
In the case of `C=CC(=O)Nc1cccc(-n2c(=O)cc(C)c3cnc(Nc4ccc(N(C)CCN(C)C)cc4OC(F)F)nc32)c1`, the results for the concentration for half-maximal inhibition (IC50) in assay [1], in assay [2] and in assay [3] were 83 nM, 24 nM and 884 nM, respectively.
As to `C=CC(=O)N1CC[C@H](Cn2c(=O)cc(C)c3cnc(Nc4ccc(N5CCN(C)CC5)cc4OC)nc32)C1`, the 50% inhibitory concentration (IC50) in assay [2] came out at 175 nM.
On to `C=CC(=O)Nc1cccc(-n2c(=O)cc(C)c3cnc(Nc4ccc(OCCN(C)C)cc4Cl)nc32)c1`, for which the IC50 in assay [1] stood at 46 nM; in assay [2], 4.7 nM; in assay [3], 832 nM.
For `C=CC(=O)Nc1cccc(-n2c(=O)cc(C)c3cnc(Nc4cn([C@H]5CCN(C)C5)nc4C)nc32)c1`, in that order: 49 nM, 18 nM and 1280 nM.
Consider `C=CC(=O)Nc1cccc(-n2c(=O)cc(C)c3cnc(Nc4cn(C)nc4C)nc32)c1`, for which the figures for the half-maximal inhibitory concentration (IC50) in assay [1], in assay [2] and in assay [3] were 22 nM, 16 nM and 1250 nM, respectively.
Take `C=CC(=O)Nc1cccc(-n2c(=O)cc(C)c3cnc(Nc4ccc(O[C@H]5CCN(C)C5)cc4OC)nc32)c1`: the IC50 in assay [2] amounted to 10.3 nM; in assay [3] it was 2110 nM.
Take `C=CC(=O)Nc1cccc(-n2c(=O)c(OC)c(C)c3cnc(Nc4ccc(N5CCN(C)CC5)cc4OC)nc32)c1`: the IC50 in assay [1] stood at 41 nM; in assay [2], 10 nM; in assay [3], 1390 nM.
On to `C=CC(=O)Nc1cccc(-n2c(=O)cc(C)c3cnc(Nc4ccc(C5CCN(C)CC5)cc4)nc32)c1`, for which the half-maximal inhibitory concentration (IC50) in assay [1] is 27 nM; in assay [2], 11 nM.
Consider `C=CC(=O)Nc1cccc(-n2c(=O)cc(C)c3cnc(Nc4ccc(OCCN(C)C)cc4F)nc32)c1`, for which the half-inhibitory concentration (IC50) in assay [1] amounted to 76 nM; in assay [2], 51 nM; in assay [3], 1340 nM.
`C=CC(=O)Nc1cccc(-n2c(=O)cc(C)c3cnc(Nc4ccnn4CC)nc32)c1` yielded a half-inhibitory concentration (IC50) in assay [2] of 911 nM.
Still for that read-out and setting: the figure for `C=CC(=O)Nc1cccc(-n2c(=O)cc(C)c3cnc(Nc4cc(C)nn4C)nc32)c1` is 762 nM.
Turning to `C=CC(=O)Nc1cccc(-n2c(=O)c(Cc3ccccc3)cc3cnc(Nc4ccc(N5CCN(C)CC5)cc4OC)nc32)c1`, the IC50 in assay [1] came out at 18 nM; in assay [2], 4 nM; in assay [3], 250 nM.
In the case of `C=CC(=O)Nc1cccc(-n2c(=O)cc(C)c3cnc(Nc4ccc(N(C)CCN5CCCC5)cc4OC)nc32)c1`, the half-maximal inhibitory concentration (IC50) in assay [1] is 272 nM; in assay [2], 128 nM; in assay [3], 1410 nM.
For `C=CC(=O)Nc1cccc(-n2c(=O)cc(C)c3cnc(Nc4ccc(N5CCN(C)CC5)c(F)c4)nc32)c1`, in that order: 86 nM, 28 nM and 1260 nM.
With `C=CC(=O)Nc1cccc(-n2c(=O)cc(C)c3cnc(Nc4ccc(OCCN(C)C)cc4OC)nc32)c1`, the concentration for half-maximal inhibition (IC50) in assay [5] worked out at 511 nM; in assay [4], 17 nM; in assay [6], 4 nM; in assay [1] it was 28 nM; in assay [2], 4 nM; in assay [3], 2400 nM.
Consider `C=CC(=O)Nc1cccc(-n2c(=O)cc(C)c3cnc(Nc4ccc(N(C)CCN(C)C)cc4OC)nc32)c1`, for which the IC50 stood at 689 nM in assay [5]; 24 nM in assay [4]; 7.8 nM in assay [6]; 22 nM in assay [1]; 8 nM in assay [2]; 1400 nM in assay [3].
Take `C=CC(=O)Nc1cccc(-n2c(=O)cc(C)c3cnc(Nc4ccc(N(C)CCN(C)C)cc4)nc32)c1`: the results for the concentration for half-maximal inhibition (IC50) in assay [1] and in assay [2] were 23 nM and 8 nM, respectively.

(Values after the Kinase Knowledgebase extract (Sharma et al. 2016).)
